Experiments:
CXCL8 = CXCL8 (Homo sapiens, UniProt P10145); test: Selectivity, neutraligand protocol, EGFP-CXCR2+ HEK cells; type: cell-based; conditions: 10 μM compound, 5 nM CXCL8, EGFP-CXCR2+ HEK cells
Method: Figure 6 (a) Selectivity of CCL17 and CCL22 neutraligands towards 10 chemokines according to the “neutraligand protocol”. […] Each column represents the mean (block) ± SD (bars) of n = 3 experiments performed in triplicate. *p < 0.05; **p < 0.01; ***p < 0.005 as compared to chemokine + DMSO. (b) Chemokine neutraligands inhibited CCR4 endocytosis induced by CCL22 or CCL17. EGFP-CCR4^+ HEK cells were incubated for 30 min with DMSO or chemokine (100 nM CCL22 or CCL17) in the presence or absence of test compounds. […] Cell surface EGFP-tagged CCR4 receptors were measured by EGFP antibody labeling and flow cytometry analysis. CCR4 internalization was expressed as a percentage of total receptor surface expression calculated using control cells incubated with DMSO (100%). […] The number of migrating cells in the presence of chemokine and compounds were expressed as the corresponding percentages. Results were analyzed by fitting the experimental curves (% of migrating cells vs log compound concentration) using the Kaleidagraph software program, and the corresponding IC50 values were calculated. […]
Dye loaded cells were placed in the FlexStation 3 (Molecular Devices). Calcium mobilization was measured at 401 and 475 nm emission fluorescence after excitation at 355 nm. […] Raw fluorescence data (at 401 and 475 nm) were exported and the ratio 401/475 was calculated. […]

CCR4 = target: T1, CCR4 (Homo sapiens, UniProt P51679); test: EGFP-CCR4 receptor surface level / endocytosis on EGFP-CCR4+ HEK cells; type: cell-based; conditions: without chemokine, data not shown
T1 construct: signal peptide fused to EGFP (N); expressed in transfected cells; host or cells: HEK-293
T1 sequence (P51679 1-360): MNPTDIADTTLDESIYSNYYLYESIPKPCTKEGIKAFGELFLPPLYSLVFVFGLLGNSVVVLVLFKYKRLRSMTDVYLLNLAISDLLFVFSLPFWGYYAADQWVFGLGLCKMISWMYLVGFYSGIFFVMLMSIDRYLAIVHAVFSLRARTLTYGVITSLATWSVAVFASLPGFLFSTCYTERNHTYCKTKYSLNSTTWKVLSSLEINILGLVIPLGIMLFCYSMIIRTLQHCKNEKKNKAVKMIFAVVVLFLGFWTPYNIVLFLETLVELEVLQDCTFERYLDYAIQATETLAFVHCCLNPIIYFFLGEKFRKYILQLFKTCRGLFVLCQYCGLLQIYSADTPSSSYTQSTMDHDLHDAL
Method: CCR4 levels were evaluated by flow cytometry (FACSCalibur, BD biosciences) using cell surface labeling of EGFP with monoclonal mouse anti-GFP (Roche Applied Science; 1:100 dilution) as primary antibody and R-phycoerythrin conjugated AffiniPure F (ab’)2 fragment goat anti-mouse (Immunotech; 1/100) as secondary antibody.

Sequence of CXCL8 (P10145 28-99 limits assumed): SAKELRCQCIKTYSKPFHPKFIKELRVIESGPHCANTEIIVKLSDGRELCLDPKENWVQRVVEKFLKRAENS

| Compound | effect on calcium responses induced by CXCL8 (CXCL8) | effect on CCR4 receptor surface level on its own (CCR4) |
| --- | --- | --- |
| O=C(OCC(O)CO)c1ccccc1O (stereo not shown) [GPN136, 2,3-dihydroxypropyl 2-hydroxybenzoate] | no effect | Neither GPN279 nor GPN136 did alter |
| CC(C)=CCn1cnc2c1c(=O)n(C)c(=O)n2C [GPN279, 1,3-dimethyl-7-(3-methylbut-2-enyl)-1H-purine-2,6(3H, 7H)-dione] | no effect | Neither GPN279 nor GPN136 did alter |

— publication PMC4595804, “A strategy to discover decoy chemokine ligands with an anti-inflammatory activity” (Scientific Reports, 2015)
